Data: US7638514B2, “Pesticidally active phenol derivatives” (Syngenta Crop Protection, Inc., priority 2003, dated 2009)

Key:
Format in all cases: in vivo
[1] = tested on: Plutella xylostella caterpillars; assay: Action against Plutella xylostella caterpillars; settings: 72 h, 400 ppm spray mixture on young cabbage plants, 10 caterpillars in the third stage, evaluation 3 days later, read-out: percentage reduction in population and percentage reduction in feeding damage (% activity)
Method: Young cabbage plants are sprayed with an aqueous emulsion spray mixture comprising 400 ppm of test compound. After the spray-coating has dried, the cabbage plants are populated with 10 caterpillars of Plutella xylostella in the third stage and placed in a plastics container. Evaluation is made 3 days later. The percentage reduction in population and the percentage reduction in feeding damage (% activity) are determined by comparing the number of dead caterpillars and the feeding damage on the treated plants with that on the untreated plants.

[2] = tested on: Spodoptera littoralis caterpillars; assay: Action against Spodoptera littoralis; settings: 72 h, 400 ppm spray mixture on young soybean plants, 10 caterpillars in the first stage, 3 days later, read-out: percentage reduction in population and percentage reduction in feeding damage (% activity)
Method: Young soybean plants are sprayed with an aqueous emulsion spray mixture comprising 400 ppm of test compound and, after the spray-coating has dried, the plants are populated with 10 caterpillars of Spodoptera littoralis in the first stage and then placed in a plastics container, 3 days later, the percentage reduction in population and the percentage reduction in feeding damage (% activity) are determined by comparing the number of dead caterpillars and the feeding damage on the treated plants with that on untreated plants.

[3] = tested on: Heliothis virescens caterpillars; assay: Action against Heliothis virescens caterpillars; settings: 144 h, 400 ppm spray mixture on young soybean plants, 10 caterpillars in the first stage, evaluation 6 days later, read-out: percentage reduction in population and percentage reduction in feeding damage (% activity)
Method: Young soybean plants are sprayed with an aqueous emulsion spray mixture comprising 400 ppm of test compound. After the spray-coating has dried, the soybean plants are populated with 10 caterpillars of Heliothis virescens in the first stage and placed in a plastics container. Evaluation is made 6 days later. The percentage reduction in population and the percentage reduction in feeding damage (% activity) are determined by comparing the number of dead caterpillars and the feeding damage on the treated plants with that on the untreated plants.

Measured: inhibition at 400 ppm

O=C(NCCCOc1c(Cl)cc(OCC=C(Cl)Cl)cc1Cl)C(=C(Cl)Cl)c1ccc(C(F)(F)F)cc1 [Compound 1.2, 3,3-dichloro-N-{3-[2,6-dichloro-4-(3,3-dichloro-allyloxy)-phenoxy]-propyl}-2-(4-trifluoromethyl-phenyl)-acrylamide]
> 80%: all assays above

C=C(COc1ccc(C(F)(F)F)cc1)COc1c(Cl)cc(OCC=C(Cl)Cl)cc1Cl [Compound 1.9, 1,3-dichloro-5-(3,3-dichloro-allyloxy)-2-[2-(4-trifluoromethyl-phenoxymethyl)-allyloxy]-benzene]
> 80%: all assays above
